The results in this text go back to ChEMBL document CHEMBL4043289, “Fragment-Based Drug Discovery of Inhibitors of Phosphopantetheine Adenylyltransferase from Gram-Negative Bacteria” (J Med Chem, 2018).

Molecules are shown by their SMILES. Values after ≈ are worked out from the molar mass of the structure shown. Active and inactive are the calls of the source. The calls are words filed in the database; no cut-off is given here. A value given as a limit tells only on which side of the number the result lay.

Data set [1] can be described thus: Inhibition of Escherichia coli C-terminal His-tagged PPAT expressed in Escherichia coli using 4'-phosphopantetheine as substrate preincubated for 5 mins followed by substrate and pyrophosphatase addition measured after 30 mins by malachite green reagent-based colorimetric method.
A short description of data set [2]: Inhibition of Pseudomonas aeruginosa C-terminal His-tagged PPAT expressed in Escherichia coli using 4'-phosphopantetheine as substrate preincubated for 5 mins followed by substrate and pyrophosphatase addition measured after 30 mins by malachite green reagent-based colorimetric method.
In data set [3] the test system is Escherichia coli. Nature of the data set: Binding affinity to Escherichia coli C-terminal His-tagged PPAT expressed in Escherichia coli assessed as change in melting temperature by SYPRO orange dye-based DSF method.
Data set [4] in a line: Inhibition of Escherichia coli C-terminal His-tagged PPAT expressed in Escherichia coli using 10 times 4'-phosphopantetheine as substrate preincubated for 5 mins followed by substrate and pyrophosphatase addition measured after 30 mins by malachite green reagent-based colorimetric method.
Data set [5] concerns Escherichia coli. Nature of the data set: Ratio of IC50 for Escherichia coli C-terminal His-tagged PPAT expressed in Escherichia coli using 10 times 4'-phosphopantetheine as substrate to IC50 for Escherichia coli C-terminal His-tagged PPAT expressed in Escherichia coli using 4'-phosphopantetheine as substrate.
The subject of data set [6] is Escherichia coli. Nature of the data set: Antibacterial activity against tolC deficient Escherichia coli BW25113 after 20 hrs by broth microdilution method. The data set is classed as functional. The following applies: for MIC: BW25113, 20 h.
The nature of data set [7]: Lipophilicity, log D of the compound at pH 7.4. The data set is classed as physicochemical. The following applies: buffer.
Data set [8] deals with Escherichia coli. Nature of the data set: Antibacterial activity against Escherichia coli ATCC 25922 after 20 hrs by broth microdilution method. In kind it is functional.
Data set [9] in a line: (§1) Binding affinity to Escherichia coli PPAT by SPR method.
In data set [10] the test system is Escherichia coli. The data set is described as §1.
Data set [11] can be described thus: Dissociation rate constant to Escherichia coli PPAT by SPR method.

On to `Cc1nc(N)n2nc(N[C@H](C)c3cccc(Cl)c3)nc2n1`, for which the IC50 in data set [1] amounted to 5.9 µM; in [2], 4.6 µM.
On the same counts, the results for `COC(=O)CC(Nc1nc2[nH]c(C)cc(=O)n2n1)c1cccc(Cl)c1` (centres undefined) are 2.5 µM and 0.49 µM.
With `Cc1ccn2nc(N[C@H](C)c3cccc(Cl)c3)nc2n1`, the IC50 in data set [1] was found to be 4.7 µM; in data set [2], 2.6 µM.
As for `Oc1cccc2[nH]c(C(F)(F)F)nc12`, the results for the IC50 in [1] and in data set [2] were 230 µM and > 500 µM, respectively. The ΔTm in the data set on Escherichia coli [3] was determined as 8.1 °C.
For `Cc1cc(=O)n2nc(NCc3cccc(Br)c3)nc2[nH]1`, in data set [1], the IC50 stood at 5.6 µM.
Take `CN1C(=O)C[C@H](c2nc3c(O)cccc3[nH]2)[C@H]1c1ccccc1` (relative stereo): the values for the IC50 in [1] and in [2] were 1 µM and 11 µM, respectively.
Regarding `Cc1cc(=O)n2nc(NC(C)c3cccc(Cl)c3)nc2[nH]1` (racemic), the IC50 in [1] was determined as 0.76 µM; in [2], 1.4 µM; in data set [4], 3.2 µM. For the same compound, the Ratio IC50 in the data set with Escherichia coli [5] is 4.2.
Take `COCC[C@@H](Nc1nc2[nH]c(C)cc(=O)n2n1)c1cccc(Cl)c1`: the IC50 in data set [1] worked out at 2.4 µM; in [2] it was 11 µM.
The corresponding values for `Cc1cc(=O)n2nc(N[C@H](COC(N)=O)c3cccc(Cl)c3)nc2[nH]1` are 0.25 µM and 3.9 µM.
On the same counts, the results for `C[C@@H](Nc1ccc2[nH]cnc2n1)c1cccc(Cl)c1` are 401 µM and > 500 µM.
Turning to `Oc1cccc2[nH]c(C3CCCN3c3cccc(Cl)c3)nc12` (centres undefined), the IC50 was 0.91 µM in data set [1] and 34 µM in data set [2].
Take `Cc1ccc2oc(N[C@H](C)c3cccc(Cl)c3)nc2n1`: the IC50 in [1] was found to be 2.4 µM; in [2], 4.9 µM.
`O=C(NCCCCCNC(=O)c1ccco1)c1ccco1` displayed an IC50 in [1] of 237 µM. Also, the ΔTm with Escherichia coli [3] was found to be 2.9 °C.
Regarding `Oc1cccc2[nH]c(COc3cccc(Cl)c3)nc12`, the IC50 in data set [1] was 1.7 µM; in data set [2], 14 µM.
In the case of `Cc1[nH]c2nc(NCc3ccccc3F)nn2c(=O)c1C`, the IC50 in data set [1] came to 31 µM. Moreover, in the data set with Escherichia coli [3], the shift in melting temperature (ΔTm) came out at 2.5 °C.
As for `Cc1[nH]c2nc(N[C@H](C)c3cccc(Cl)c3)nn2c(=O)c1C`, the IC50 in data set [1] was 1.1 µM; in data set [2] it was 1.7 µM.
On the same counts, the results for `Cc1nc2ccccc2n1Cc1nc2c(O)cccc2[nH]1` are 23 µM and 0.13 µM.
Turning to `Cc1ccc2c(ncn2Cc2cccc(Cl)c2)n1`, in data set [1], inhibition was half-maximal at 4.3 µM (IC50).
On to `CC(C)(C)Nc1ccc2nnc(C(F)(F)F)n2n1`, for which the IC50 in [1] was > 2500 µM. Also, the ΔTm in the data set on Escherichia coli [3] was found to be 2.5 °C.
The compound `Cc1cc(=O)n2nc(N[C@@H](C)c3ccccc3)nc2[nH]1` yielded an IC50 in [1] of 120 µM.
In the case of `Oc1cccc2[nH]c(CCc3cccc(Cl)c3)nc12`, the IC50 amounted to 0.25 µM in data set [1] and 4.6 µM in data set [2]. Besides, the MIC against Escherichia coli [6] was determined as 32 µg/mL (≈ 117 µM).
In the case of `CNC(=O)CC(Nc1nc2[nH]c(C)cc(=O)n2n1)c1cccc(Cl)c1` (centres undefined), the IC50 was found to be 15 µM in [1] and 10 µM in data set [2].
Turning to `Cc1ccc2[nH]c(N[C@H](C)c3cccc(Cl)c3)nc2n1`, the IC50 in [1] worked out at 0.19 µM; in [2] it was 0.61 µM. In data set [7], this compound displayed a logD of 3.3.
In the case of `CCc1cc(=O)n2nc(N[C@H](C)c3cccc(Cl)c3)nc2[nH]1`, the IC50 in data set [1] turned out to be 0.9 µM; in data set [2], 2.8 µM.
The corresponding values for `C[C@@H](Nc1ccc2nccnc2n1)c1cccc(Cl)c1` are 348 µM and 271 µM.
For `Nc1ncnc2ncn(Cc3cccc(Cl)c3)c12`, the IC50 in data set [1] amounted to 264 µM. Also, in the data set on Escherichia coli [3], the ΔTm amounted to 2.7 °C.
With `Cc1ccc2sc(N[C@H](C)c3cccc(Cl)c3)nc2n1`, the IC50 in data set [1] came out at 0.41 µM; in data set [2], 2.3 µM.
In the case of `Cc1cc(C)nc(NS(=O)(=O)c2ccc(N)cc2C)n1`, the IC50 in [1] amounted to 74 µM. Further, the ΔTm in the data set on Escherichia coli [3] stood at 8.7 °C.
On to `CN1C(=O)CCC(c2nc3c(O)cccc3[nH]2)C1c1ccccc1` (centres undefined), for which the IC50 is 0.32 µM in [1] and 25 µM in data set [2].
Regarding `NCc1ccc2ccnc(N)c2c1`, half-maximal inhibition in data set [1] (IC50) was put at 1080 µM.
On to `Cc1cc(N)n2nc(N[C@H](C)c3cccc(Cl)c3)nc2n1`, for which the IC50 worked out at 0.41 µM in data set [1] and 0.38 µM in data set [2].
As for `CC(C)(CO)[C@@H](O)C(=O)NCCc1nc2c(O)cccc2[nH]1`, the values for the IC50 in [1] and in data set [2] were 30 µM and 114 µM, respectively. The result with Escherichia coli [6] and in the data set on Escherichia coli [8] was inactive.
Consider `Cc1cc(=O)n2nc(NCc3cccc(Cl)c3)nc2[nH]1`, for which the IC50 in data set [1] worked out at 7.6 µM; in [4], 43 µM. Further, the Ratio IC50 in the data set on Escherichia coli [5] was determined as 5.7.
Regarding `Cc1cc(=O)n2nc(N[C@H](CCO)c3cccc(Cl)c3)nc2[nH]1`, the IC50 was 0.24 µM in [1], 2 µM in data set [2] and 0.44 µM in [4]. In addition, the Ratio IC50 in the data set with Escherichia coli [5] was 1.8.
Compound `CC1(C)OC(=O)c2ccccc2[C@H]1n1cncc1C(F)F` gave a concentration for half-maximal inhibition (IC50) in data set [1] of 163 µM. In addition, the ΔTm in the data set with Escherichia coli [3] is 3.8 °C.
For `Cc1cc(=O)n2nc(NC(CC(=O)O)c3cccc(Cl)c3)nc2[nH]1` (centres undefined), the IC50 amounted to 0.2 µM in data set [1] and 1.1 µM in data set [2].
The corresponding values for `Cc1cc(=O)n2nc(N[C@H](CO)c3cccc(Cl)c3)nc2[nH]1` are 0.55 µM and 0.66 µM.
In the case of `Cc1ccc2c(ncn2Cc2ccccc2)n1`, 19 µM corresponded to half-maximal inhibition in data set [1] (IC50).
Regarding `Cc1cc(=O)n2nc(NC(CC(N)=O)c3cccc(Cl)c3)nc2[nH]1` (centres undefined), the IC50 in data set [1] was determined as 0.45 µM; in data set [2], 0.83 µM.
Consider `CC(=O)N1CCC[C@H]1c1nc2c(O)cccc2[nH]1`, for which the IC50 in [1] was 106 µM; in data set [2], 1.9 µM.
Consider `Oc1cccc2[nH]c([C@H]3CCC[C@@H]3c3cccc(Cl)c3)nc12` (relative stereo), for which the IC50 in [1] is 0.051 µM; in [2], 1.6 µM. For the same compound, the Kd in [9] is 0.038 µM. Also, in the data set on Escherichia coli [10], the Ka came to 1.96 ×10⁵ /M/s. The koff in [11] worked out at 0.0071 s⁻¹.
Consider `Cc1cc(=O)n2nc(NCc3ccccc3)nc2[nH]1`, for which, in data set [1], the midpoint of inhibition, the IC50, lay at 77 µM.
As to `Cc1ccc2[nH]c(N[C@H](CC#N)c3cccc(Cl)c3)nc2n1`, the IC50 is 0.056 µM in data set [1] and 0.064 µM in [2]. Besides, in data set [9], binding was put at a Kd of 0.01 µM. The Ka with Escherichia coli [10] is 13 ×10⁵ /M/s. This compound also came in with a minimal inhibitory concentration (MIC) with Escherichia coli [6] of 4 µg/mL (≈ 12.8 µM). This compound also came in with a logD in [7] of 3.3. The result in the data set with Escherichia coli [8] was inactive. In [11], this compound came in with a koff of 0.013 s⁻¹.
In turn, `Cc1cc(=O)n2nc(N[C@H](C)c3ccccc3)nc2[nH]1` registered an IC50 in data set [1] of 6.4 µM.
As for `OCc1nc2c(O)cccc2[nH]1`, the values for the IC50 in data set [1] and in data set [2] were 116 µM and 108 µM, respectively.
With `NC1=NC(c2cccc(F)c2)n2c(nc3ccccc32)N1` (centres undefined), in data set [1], the IC50 was found to be 69 µM. Besides, the ΔTm in the data set on Escherichia coli [3] is 3.4 °C.
With `O=C(O)c1cccc([C@H]2CCC[C@@H]2c2nc3c(O)cccc3[nH]2)c1` (relative stereo), the IC50 in data set [1] came out at 0.051 µM; in data set [2], 25 µM.
Consider `COc1ccc2[nH]cc(CCNC(=O)C(C)(C)C)c2c1`, for which, in data set [1], the IC50 amounted to 199 µM. Further, the thermal shift (ΔTm) with Escherichia coli [3] amounted to 3.1 °C.
Compound `COc1ccc2c(c1)C(C)(C)C1CC2CN(C(C)=O)C1` (centres undefined) came in with an IC50 in [1] of 37 µM. In the data set on Escherichia coli [3], the ΔTm came out at 5.1 °C.
`c1ccc(Cn2cnc3ncccc32)cc1` yielded an IC50 in data set [1] of 273 µM. In addition, the ΔTm in the data set with Escherichia coli [3] was determined as 2.3 °C.
As to `Oc1cccc2[nH]c(Cc3noc4ccccc34)nc12`, the IC50 was 1 µM in [1] and 2.7 µM in data set [2].
